The source of these data is patent US5219839A, “Adenosine derivatives, their methods of preparation and pharmaceutical compositions in which they are present” (Laboratories UPSA, priority 1992, dated 1993).

The test system of experiment [1] is twisting and stretching movements in mice. As to the kind of experiment: Phenylbenzoquinone test (analgesic activity). Format: in vivo. The note with it: one hour before phenylbenzoquinone i.p., 5 minutes observation; for ED50: Mus musculus, po, read-out: Phenylbenzoquinone test 50% inhibitory dose. The protocol: The intraperitoneal injection of phenylbenzoquinone causes twisting and stretching movements in mice. Analgesics prevent or reduce this syndrome, which can be considered as the exteriorization of diffuse abdominal pain.
A 0.02% solution of phenylbenzoquinone in water is administered in a volume of 1 ml/100 g.
The products of the Examples are administered orally one hour before the injection of phenylbenzoquinone.
The stretching and twisting movements are counted for each mouse over an observation period of 5 minutes.

The target in experiment [2] is T1, A1 receptors (Rattus norvegicus, UniProt P25099).
T1 construct: the brain is quickly removed and washed in cold isotonic solution; from tissue; host or cells: rat brain hemispheres (membrane homogenate)
T1 sequence (P25099 1-326): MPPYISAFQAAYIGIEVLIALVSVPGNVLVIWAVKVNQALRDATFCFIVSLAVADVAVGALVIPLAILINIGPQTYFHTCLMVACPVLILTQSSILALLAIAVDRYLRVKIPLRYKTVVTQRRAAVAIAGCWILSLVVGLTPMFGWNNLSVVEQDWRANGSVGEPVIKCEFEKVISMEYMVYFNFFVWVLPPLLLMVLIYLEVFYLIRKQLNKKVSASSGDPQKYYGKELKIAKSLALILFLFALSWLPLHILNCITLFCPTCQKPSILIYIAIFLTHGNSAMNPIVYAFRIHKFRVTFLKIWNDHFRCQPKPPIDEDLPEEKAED
As to the kind of experiment: Binding to adenosine A1 receptors: competitive displacement of [^3 H] PIA, rat brain membranes. The note with it: [^3 H] PIA 2.5 nM, n=3; for inhibition at 10 µM: 10^-5 M, read-out: % displacement of the labeled ligand, A1, 1E-5M; for inhibition at 0.1 µM: read-out: % displacement of the labeled ligand, A1, 1E-7M. The protocol:
(§1) The affinity of the products of the Examples for the rat central A1 and A2 adenosinergic receptors is determined by the competitive technique using a radioactive ligand specifically bound either to the A1 receptors ([^3 H] PIA) or to the A2 receptors ([^3 H] NECA).
After the animal has been sacrificed by decapitation, the brain is quickly removed and washed in cold isotonic solution. The two hemispheres are separated and weighed and each of them is introduced into a polyallomer tube containing 25 volumes of cold homogenization buffer. Homogenization is effected using an Ultra-Turrax for 30 seconds (3 times 10 seconds with 10-second intervals, 70% of the maximum speed). The ground material obtained is centrifuged at 1000 g (≈3000 rpm) for 10 minutes at 4° C.
The supernatant is centrifuged again at 48,000 g (≈20,000 rpm) for 20 minutes at 4° C.
When this step is complete, the residue is taken up with 4 volumes of homogenization buffer, resuspended using a Vortex and homogenized with the Ultra-Turrax. Adenosine deaminase is then added at a rate of 1 U/ml, i.e. 1 μl/ml of homogenate, using a 10 μl Hamilton syringe.
After this treatment, the homogenate is shaken for 30 minutes at room temperature and then centrifuged at […] (≈20,000 rpm) for 30 minutes at 4° C.
The residue obtained is resuspended in 10 volumes of homogenization buffer and passed through the Ultra-Turrax for 20 seconds (2 times 10 seconds with a 10-second interval, 70% of the maximum speed).
The homogenate prepared in this way is used for the competitive tests. It is kept at 4° C. if the studies take place the same day, or stored at -20° C. in the form of 10 ml aliquots.
After the homogenate has been thawed at room temperature, it is passed through a Potter homogenizer (6 manual to-and-fro movements, speed 6), diluted to 2/5 in incubation buffer and placed in a water bath thermostated at 4° C., with shaking, until the end of the experiment.
50 μl of [^3 H] PIA at 100 nM, i.e. 2.5 nM in the final reaction medium allowing for the 1/40 dilution, and 50 μl of the product of the Example at the concentrations considered (10^-5 M and 10^-7 M) are introduced into the reaction tubes. The reaction is initiated by the addition of 1 ml of homogenate and 900 μl of incubation buffer. The procedure is identical for all the […] studied.
The tubes are shaken and incubated in a water bath at 20° C. for 30 minutes. When the incubation is complete, the contents of the tubes are filtered on Whatman GF/B paper. Each tube is washed twice with 2 ml of rinsing buffer and then the filters themselves are rinsed with 3 ml of this same buffer.
The filters are then transferred to counting flasks and 10 ml of liquid scintillator (Ready Solv HP/b, Beckman) are added.
After they have been shaken, the flasks are stored in a refrigerator overnight and the radioactivity is then determined in a liquid scintillation counter.
3 tests are performed for each concentration studied. The non-specific binding of the [^3 H] PIA is assessed by measuring the amount of radioactivity retained on the filter in the presence of 10^-5 M phenylisopropyladenosine (PIA). The value of the non-specific binding is systematically subtracted from that of the tests.
(§2) The results are expressed for each product in the form of the percentage displacement (n=3) of the labeled radioligand at concentrations of 10^-5 M and 10^-7 M.

Experiment [3] concerns the target T2, A2 receptors (Rattus norvegicus, UniProt P30543).
T2 construct: The two hemispheres are separated and the striatum is removed from each of them (Bruns et al., 1986); from tissue; host or cells: rat striatum (membrane homogenate)
The experiment is described as follows: Binding to adenosine A2 receptors: competitive displacement of [^3 H] NECA, rat striatum membranes. The settings on record: [^3 H] NECA 4 nM, n=3; for inhibition at 10 µM: read-out: % displacement of the labeled ligand, A2, 1E-5M; for inhibition at 0.1 µM: read-out: % displacement of the labeled ligand, A2, 1E-7M. The protocol:
as §1
After decapitation of the animal, the brain is quickly removed and washed in cold isotonic solution. The two hemispheres are separated and the striatum is removed from each of them (Bruns et al., 1986), weighed and introduced into a polyallomer tube containing 10 volumes of cold homogenization buffer. The tissue is homogenized with an Ultra-Turrax for 30 seconds (3 times 10 seconds with 10-second intervals, 70% of the maximum speed). The ground material is centrifuged at 50,000 g (≈20,500 rpm) for 10 minutes at 4° C.
The residue obtained is resuspended in 10 volumes of homogenization buffer using a Vortex and homogenized with the Ultra-Turrax (5 to 10 seconds, 70% of the maximum speed).
Adenosine deaminase is then added at a rate of 1 U/ml, i.e. 1 μl/ml of homogenate, using a 10 μl Hamilton syringe. The homogenate treated in this way is shaken at room temperature for 30 minutes.
When the incubation is complete, the homogenate is centrifuged at 50,000 g (≈20,500 rpm) for 10 minutes at 4° C.
The residue is taken up with 5 volumes of cold homogenization buffer and passed through the Ultra-Turrax (2 times 10 seconds with a 10-second interval, 70% of the maximum speed) and the homogenate prepared in this way is finally frozen at -70° C.
After the homogenate has been thawed at room temperature, 15 volumes of incubation buffer are added. The homogenate is shaken on a Vortex, passed through a Potter homogenizer (6 to-and-fro movements, speed 6), diluted to 1/10 in incubation buffer and finally placed in a water bath thermostated at 4° C., with shaking, until the end of the experiment.
50 μl of [^3 H] NECA at 160 nM, i.e. 4 nM in the final reaction medium allowing for the 1/40 dilution, and 50 μl of the product of the Example at the concentrations considered (10^-5 M and 10^-7 M) are introduced into the reaction tubes. The reaction is initiated by the addition of 1 ml of homogenate and 900 μl of incubation buffer. The procedure is similar for all the compounds studied.
The tubes are shaken and incubated in a water bath at 25° C. for 60 minutes. When the incubation is complete, the contents of the tubes are filtered on Whatman GF/B paper. Each tube is washed twice with 2 ml of rinsing buffer and then the filters themselves are rinsed with 3 ml of this same buffer before being transferred to counting flasks.
10 ml of liquid scintillator (Ready Solv HP/b, Beckman) are added to all the flasks. These are shaken and stored in a refrigerator overnight. The radioactivity is determined in a liquid scintillation counter.
3 tests are performed for each concentration studied. The non-specific binding of the [^3 H] NECA is determined by measuring the amount of radioactivity retained on the filter in the presence of 5 μM N-ethylcarboxamidoadenosine (NECA). The value of the non-specific binding is systematically subtracted from that of the tests.
as §2

SMILES strings stand for the structures.

T2 sequence (P30543 whole entry): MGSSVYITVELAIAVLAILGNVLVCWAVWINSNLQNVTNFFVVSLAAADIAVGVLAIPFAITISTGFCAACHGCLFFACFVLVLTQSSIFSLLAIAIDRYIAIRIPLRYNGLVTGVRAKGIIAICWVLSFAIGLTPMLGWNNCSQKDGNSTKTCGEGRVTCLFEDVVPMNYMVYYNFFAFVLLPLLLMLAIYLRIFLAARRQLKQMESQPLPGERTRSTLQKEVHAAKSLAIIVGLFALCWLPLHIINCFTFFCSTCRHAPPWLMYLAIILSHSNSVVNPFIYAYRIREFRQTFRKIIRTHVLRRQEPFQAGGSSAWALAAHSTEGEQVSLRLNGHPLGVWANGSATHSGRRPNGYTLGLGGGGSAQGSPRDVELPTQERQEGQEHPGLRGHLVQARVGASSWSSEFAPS

`O=C(NC1CC1)[C@H]1O[C@@H](n2cnc3c(NCC4CC4(c4ccccc4)c4ccccc4)ncnc32)[C@H](O)[C@@H]1O` (mixture of isomers) [Example 42, β-D-Ribofuranuronamido-N-cyclopropyl-1-deoxy-1-[6-[(±)-[[2,2-diphenylcyclopropyl]methyl]amino]-9H-purin-9-yl]]: the ED50 in experiment [1] turned out to be 0.9 mg/kg. Besides, the inhibition at 10 µM was 96% in experiment [2] and 94% in experiment [3] (10^-5 M). Further, the inhibition at 0.1 µM was found to be 20% in experiment [2] (10^-7 M) and 59% in experiment [3] (10^-7 M).
On to `OC[C@H]1O[C@@H](n2cnc3c(NCC4CC4(c4ccccc4)c4ccccc4)ncnc32)[C@H](O)[C@@H]1O` (mixture of isomers) [Example 51, N^6-(±)-[1,1-Diphenylcyclopropan-2-yl]methyladenosine], for which the ED50 in experiment [1] came to 31 mg/kg. Besides, the values for the inhibition at 10 µM in experiment [2] and in experiment [3] (10^-5 M) were 93% and 95%, respectively. Besides, the inhibition at 0.1 µM in experiment [2] (10^-7 M) worked out at 18%; in experiment [3] (10^-7 M), 56%.
As to `OC[C@H]1O[C@@H](n2cnc3c(NCC4CC4(c4ccccc4)c4cc(Cl)cc(Cl)c4)ncnc32)[C@H](O)[C@@H]1O` (mixture of isomers) [Example 52, N^6-(±)-[1-(3,5-Dichlorophenyl)-1-phenylcyclopropan-2-yl]methyladenosine], the ED50 in experiment [1] stood at 41 mg/kg. The inhibition at 10 µM in experiment [2] and in experiment [3] (10^-5 M) was 92% throughout. For the same compound, the inhibition at 0.1 µM in experiment [2] (10^-7 M) came out at 18%; in experiment [3] (10^-7 M) it was 28%.
For `CCNC(=O)[C@H]1O[C@@H](n2cnc3c(NCC4CC4(c4ccccc4)c4ccccc4)ncnc32)[C@H](O)[C@@H]1O` (single isomer, unassigned) [Example 49, β-D-Ribofuranuronamido-N-ethyl-1-deoxy-1-[6-[(-)-[[2,2-diphenylcyclopropyl]methyl]amino]-9H-purin-9-yl]], the “Phenylbenzoquinone test 50% inhibitory dose” value in experiment [1] (p.o.) came out at 0.7 mg/kg. The inhibition at 10 µM in experiment [2] worked out at 93%. The “% displacement of the labeled ligand, A1, 1E-7M” value in experiment [2] (10^-7 M, 0.1 µM) came to 15%. Besides, the “% displacement of the labeled ligand, A2, 1E-5M” value in experiment [3] (10^-5 M, 10 µM) is on record as 86%. Moreover, in experiment [3] (10^-7 M, 0.1 µM), the “% displacement of the labeled ligand, A2, 1E-7M” value came out at 0%.
For `O=C(NC1CC1)[C@H]1O[C@@H](n2cnc3c(NCC4CC4(c4ccc(F)cc4)c4ccc(F)cc4)ncnc32)[C@H](O)[C@@H]1O` (mixture of isomers) [Example 40, β-D-Ribofuranuronamido-N-cyclopropyl-1-deoxy-1-[6-[(±)-[[2-di(4-fluorophenyl)cyclopropyl]methyl]amino]-9H-purin-9-yl]], the ED50 in experiment [1] is 0.5 mg/kg. The inhibition at 10 µM stood at 94% in experiment [2] and 89% in experiment [3] (10^-5 M). For the same compound, the inhibition at 0.1 µM was determined as 15% in experiment [2] (10^-7 M) and 53% in experiment [3] (10^-7 M).
